Measured values reported in patent publication US8519136B2, “Aminopyridine derivatives having aurora a selective inhibitory action” (MSD K.K., priority 2008, dated 2013).
Where a name gives a salt, the structure may show the parent alone.

Assays:
[1] = tested on: Human cervical cancer cells (HeLa S3); assay: Effect by combined use of drugs in cells (with docetaxel), WST-8 method; assay type: cell-based; details: HeLa S3, three days; for inhibition at 0.3 µM: compound 300 nM alone
Description: Fetal calf serum (FCS) was purchased from Moregate Biotech, DMEM medium from Invitrogen Corp., docetaxel (tradename: Taxere) from Sigma-Aldrich, Inc., and WST-8 from Kishida Chemical Co., Ltd.
Human cervical cancer cells (HeLa S3) were obtained from the American Type Culture Collection (ATCC).
Cells were suspended in a DMEM medium containing 10% FCS, and the cell suspension was dispensed to two 96-well plastic plates at a rate of 750 cells/100 microliters per well. The plates were incubated overnight in 5% CO2-95% air at 37° C. A drug was subjected to graded dilution in dimethylsulfoxide and further diluted with DMSO or with a DMEM medium containing 10% FCS and also containing 0.6 nM docetaxel. Then, the dilutions were each dispensed to one of the plates on which cells had been disseminated, at a rate of 100 microliters per well. The final concentration of docetaxel at this stage was 0.3 nM. Also, the concentrations in the case of sole administration of the compound according to the invention were 0.003, 0.01, 0.03, 0.1, 0.3, 1, 3 and 10 μM. The plates were incubated for further three days in 5% CO2-95% air at 37° C. Cell growth after incubation was measured by the WST-8 method (H. Tominaga, et al., Anal. Commun., 36, 47-50 (1999)). Here, the WST-8 method refers to a method in which 20 microliters of a WST-8 reagent solution is added to each well, incubation is conducted at 37° C. for 60 minutes, the plate is stirred, and the amount of formazan produced is measured by a colorimetric method to determine the inhibitory rate of the drug. The growth inhibitory effects of docetaxel and of the compound according to the invention were determined, with the value obtained in sole treatment of DMSO being defined as 0%.

[2] = molecular target: T1, His-tagged human Aurora A (Homo sapiens, UniProt O14965); assay: Aurora A inhibitory activity (IMAP fluorescence polarization); assay type: biochemical; details: 20 μM ATP, 30° C., 120 minutes
T1 construct: His (N); made in house; host or cells: Escherichia coli BL21-CodonPlus(DE3)-RIL
T1 sequence (O14965 1-403): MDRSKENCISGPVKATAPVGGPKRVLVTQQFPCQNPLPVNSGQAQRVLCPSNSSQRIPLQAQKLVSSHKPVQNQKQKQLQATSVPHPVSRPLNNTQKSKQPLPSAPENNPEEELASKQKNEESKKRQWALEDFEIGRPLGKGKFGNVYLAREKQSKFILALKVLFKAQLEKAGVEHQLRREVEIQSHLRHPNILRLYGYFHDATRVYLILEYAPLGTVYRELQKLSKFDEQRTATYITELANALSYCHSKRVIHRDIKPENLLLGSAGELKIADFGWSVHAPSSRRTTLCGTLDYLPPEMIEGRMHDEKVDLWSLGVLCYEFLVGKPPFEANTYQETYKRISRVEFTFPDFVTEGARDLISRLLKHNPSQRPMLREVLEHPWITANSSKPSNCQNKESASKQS
Source text: cDNA of N-terminal His-tagged human Aurora A was integrated into an expression vector, which was then highly expressed in Escherichia coli BL21-CodonPlus(DE3)-RIL cells. The Escherichia coli was harvested and lysed, and then the His-tagged human Aurora A protein was applied onto a nickel chelate column and eluted from the column with imidazole. The active fractions were desalted with a desalting column to give a purified enzyme.
For measurement of the activity of Aurora A, the substrate used was a synthetic peptide (5-FAM (5-carboxyfluorescein)-γ-aminobutyric acid-Ala-Leu-Arg-Arg-Ala-Ser-Leu-Gly-NH2) (SEQ.ID.NO.: 1), which was purchased from Toray Research Center, Inc.
For the phosphorylation reaction, the method by Upstate, Inc. [Kinase Profiler™ Assay Protocols] was referred to, and phosphorylation of the substrate was detected using IMAP® technology (Molecular Devices, Co. Ltd.) (Gaudet E W. et. al, J. Biomol. Screen, 8, 164-175 (2003)). Concretely, the phosphorylation reaction and the detection were carried out as follows:
The phosphorylation reaction was conducted using 384 well plate, and the reaction volume was 10 μl/well. The reaction buffer is comprised of 50 mM Tris-chloride buffer (pH 7.4), 15 mM magnesium acetate, and 0.2 mM ethylenediamine-N,N,N′,N′-tetraacetic acid (EDTA). Thereto, the purified Aurora A protein, 100 nM of the peptide substrate, and 20 μM of adenosine 5′-triphosphate (ATP) were added, and then the reaction was carried out at 30° C. for 120 minutes.
Thereafter, in order to terminate and detect the reaction, 30 μl of the IMAP (registered trademark) binding reagent (IMAP Progressive Binding Reagent, R7284) that had been diluted (1:400) in the 1×IMAP binding buffer A (IMAP Progressive Binding Buffer A, 5× stock, R7282) was added to each well. The solution stood still for 60 minutes in the dark, and then fluorescence polarization was measured using a high-end microplate reader (excitation wavelength: 485 nm; emission wavelength: 520 nm).
The compound to be tested was added to the reaction system such that a dilution series of the compound in dimethylsulfoxide (DMSO) was prepared, and then 0.5 μL of this solution was added for the testing to each well. Each control well was provided by adding 0.5 μL of DMSO to the well in place of the DMSO solution containing the compound to be tested.

[3] = Homo sapiens, HeLa S3, 72 h, read-out: Cell growth inhibitory effect by sole administration of the compound of Example (%)
[4] = compound 300 nM + docetaxel 0.3 nM

IC50 [2]	SMILES	inhibition at 0.3 µM [1, 3]	Cell growth inhibitory effect by combined administration of docetaxel and the compound of Example (%) [1, 4]	inhibition at 0.1 µM ([1]; Homo sapiens, HeLa S3, 72 h, compound 100 nM alone, read-out: Cell growth inhibitory effect by sole administration of the compound of Example (%))	Cell growth inhibitory effect by combined administration of docetaxel and the compound of Example (%) ([1]; compound 100 nM + docetaxel 0.3 nM)
0.91 nM	Cl.O=C(c1cccc(Cl)c1F)N1CCC(O)(Cc2cccc(Nc3cc[nH]n3)n2)CC1 [Example 2, 1-(3-chloro-2-fluorobenzoyl)-4-((6-(1H-pyrazol-3-ylamino)pyridin-2-yl)methyl)piperidin-4-ol hydrochloride]	23.9%	90.2%	–	–
0.4 nM	O=c1[nH]nc(C2(Cc3cccc(Nc4cc[nH]n4)n3)CCN(S(=O)(=O)c3ccccc3C(F)(F)F)CC2)o1 [Example 14, 5-(4-((6-(1H-pyrazol-3-ylamino)pyridin-2-yl)methyl)-1-((2-(trifluoromethyl)phenyl)sulfonyl)piperidin-4-yl)-1,3,4-oxadiazol-2(3H)-one trifluoroacetate]	3.3%	80.7%	–	–

SMILES	IC50 [2]	inhibition at 0.3 µM [1, 3]	Cell growth inhibitory effect by combined administration of docetaxel and the compound of Example (%) [1, 4]	inhibition at 0.1 µM ([1]; Homo sapiens, HeLa S3, 72 h, compound 100 nM alone, read-out: Cell growth inhibitory effect by sole administration of the compound of Example (%))	Cell growth inhibitory effect by combined administration of docetaxel and the compound of Example (%) ([1]; compound 100 nM + docetaxel 0.3 nM)
O=c1[nH]nc(C2(Cc3cccc(Nc4cc[nH]n4)n3)CCN(C(c3cccc(C(F)(F)F)c3)C(F)(F)F)CC2)o1 (stereo not drawn) [Example 19, 5-(4-((6-(1H-pyrazol-3-ylamino)pyridin-2-yl)methyl)-1-(2,2,2-trifluoro-1-(3-(trifluoromethyl)phenyl)ethyl)piperidin-4-yl)-1,3,4-oxadiazol-2(3H)-one trifluoroacetate]	1.27 nM	–	–	7.6%	86.0%
